In PMC6465285, “Arsinothricin, an arsenic-containing non-proteinogenic amino acid analog of glutamate, is a broad-spectrum antibiotic” (Communications Biology, 2019):

How the values were obtained:
[1] = target: T1, PpArsN1 (ArsN1 N-acetyltransferase) (Pseudomonas putida, UniProt Q88LK7)
T1 construct: gene PP_1924

[2] = target: T2, SvPAT (phosphinothricin N-acetyltransferase) (Streptomyces viridochromogenes, UniProt Q57146); test: DTNB acetyltransferase assay, Km; details: read-out: Specific activity (nmol s^-1 mg^-1 PpArsN1) / Km
T2 construct: gene pat
T2 sequence (Q57146 whole entry, looked up): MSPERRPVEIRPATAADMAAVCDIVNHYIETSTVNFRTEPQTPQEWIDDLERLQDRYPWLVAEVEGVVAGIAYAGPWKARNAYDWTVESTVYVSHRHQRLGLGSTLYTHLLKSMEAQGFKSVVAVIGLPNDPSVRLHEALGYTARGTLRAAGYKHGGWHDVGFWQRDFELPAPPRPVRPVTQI

[3] = target: T1, PpArsN1 (ArsN1 N-acetyltransferase); remark: listed apart in the source
glutamine synthetase [4] = target: T3, glutamine synthetase (Escherichia coli, UniProt P0A9C5); test: coupled ADP/NADH oxidation assay with purified enzyme; format: biochemical
T3 construct: gene glnA
T3 sequence (P0A9C5 2-469): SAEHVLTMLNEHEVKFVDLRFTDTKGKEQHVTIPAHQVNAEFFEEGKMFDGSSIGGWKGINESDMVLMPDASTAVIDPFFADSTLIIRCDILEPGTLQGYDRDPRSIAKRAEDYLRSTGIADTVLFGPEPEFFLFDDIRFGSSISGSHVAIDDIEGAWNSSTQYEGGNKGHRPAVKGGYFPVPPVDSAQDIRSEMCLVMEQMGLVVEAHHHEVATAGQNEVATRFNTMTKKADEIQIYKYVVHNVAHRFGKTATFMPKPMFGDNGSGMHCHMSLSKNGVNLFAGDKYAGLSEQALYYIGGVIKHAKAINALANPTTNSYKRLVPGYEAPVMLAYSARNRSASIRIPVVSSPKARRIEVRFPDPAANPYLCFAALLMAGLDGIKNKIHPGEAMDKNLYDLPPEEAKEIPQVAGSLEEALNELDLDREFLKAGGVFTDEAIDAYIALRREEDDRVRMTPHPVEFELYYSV

glutamine synthetase [5] = target: T3, glutamine synthetase; test: coupled ADP/NADH oxidation assay, Km; format: biochemical
[6] = target: PpArsN1, arsinothricin N-acetyltransferase ArsN1 of Pseudomonas putida KT2440 (Pseudomonas putida KT2440); test: SEC; size-exclusion chromatography of purified PpArsN1 in solution (Supplementary Figure 2); conditions not given
[7] = system: CP(=O)(O)CC[C@H](N)C(=O)O; test: purified protein; details: acetyl coenzyme A

Question: C[As](=O)(O)CC[C@H](N)C(=O)O [AST, 2-amino-4-(hydroxymethylarsinoyl)butanoate] was tested. Which Km [1] did it give?
Answer: Its Km is 11 ± 3 µM.

Question: And the Km [2]?
Answer: The Km was 12 ± 2 µM.

Question: With CS(=N)(=O)CC[C@H](N)C(=O)O (stereo partly drawn) [L-MSO, L-methionine sulfoximine] as the compound, how does the “Specific activity (nmol s^-1 mg^-1 PpArsN1) / Substrate” value [3] read?
Answer: Its value is 2.1 ± 0.1 nmol/s/mg.

Question: Which Ki (glutamine synthetase [4]) does the source give for CP(=O)(O)CC[C@H](N)C(=O)O [L-PPT, 2-amino-4-(hydroxymethylphosphinyl)butanoate] here?
Answer: The Ki was 400 ± 150 nM.

Question: Which Km (glutamine synthetase [5]) does the source give for N[C@@H](CCC(=O)O)C(=O)O [L-glutamate] here?
Answer: Its Km is 2700 ± 600 µM.

Question: “PpArsN1, arsinothricin N-acetyltransferase ArsN1 of Pseudomonas putida KT2440 (enzyme)” was tested. Which stoichiometry N [6] did it give?
Answer: The stoichiometry N was 2.

Question: Which Km [7] does the source give for “SvPAT (phosphinothricin N-acetyltransferase) (Streptomyces viridochromogenes DSM 40736)” here?
Answer: The Km was 47 ± 2 µM.

Question: What about the kcat [7] of the same compound?
Answer: Its kcat is 3.1 s⁻¹.

Question: And the kcat/Km [7]?
Answer: The kcat/Km was 66000 M⁻¹ s⁻¹.
